Calls of active or inactive are those of the source. The calls are words filed in the database; no cut-off is given here.
Columns and labels:
[1] = target: T1, Tyrosine-protein phosphatase non-receptor type 1 (Homo sapiens, UniProt P18031); experiment: Inhibition of PTP1B (unknown origin)
T1 sequence (P18031 whole entry): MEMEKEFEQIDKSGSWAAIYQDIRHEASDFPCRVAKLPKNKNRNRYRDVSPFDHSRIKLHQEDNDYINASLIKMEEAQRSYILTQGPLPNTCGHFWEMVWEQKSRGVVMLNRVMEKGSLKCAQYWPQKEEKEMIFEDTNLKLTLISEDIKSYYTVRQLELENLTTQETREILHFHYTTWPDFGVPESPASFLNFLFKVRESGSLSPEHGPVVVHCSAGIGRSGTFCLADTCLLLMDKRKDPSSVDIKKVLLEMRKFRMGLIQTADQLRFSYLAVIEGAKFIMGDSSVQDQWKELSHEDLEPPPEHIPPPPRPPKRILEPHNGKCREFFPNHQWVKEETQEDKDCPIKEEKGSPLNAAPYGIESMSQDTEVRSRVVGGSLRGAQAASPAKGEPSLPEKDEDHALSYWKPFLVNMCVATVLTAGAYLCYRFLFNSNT

[2] = target: T2, M-phase inducer phosphatase 2 (Homo sapiens) (UniProt P30305); experiment: Inhibition of Cdc25B (unknown origin) at 5 ug/ml
T2 sequence (whole entry): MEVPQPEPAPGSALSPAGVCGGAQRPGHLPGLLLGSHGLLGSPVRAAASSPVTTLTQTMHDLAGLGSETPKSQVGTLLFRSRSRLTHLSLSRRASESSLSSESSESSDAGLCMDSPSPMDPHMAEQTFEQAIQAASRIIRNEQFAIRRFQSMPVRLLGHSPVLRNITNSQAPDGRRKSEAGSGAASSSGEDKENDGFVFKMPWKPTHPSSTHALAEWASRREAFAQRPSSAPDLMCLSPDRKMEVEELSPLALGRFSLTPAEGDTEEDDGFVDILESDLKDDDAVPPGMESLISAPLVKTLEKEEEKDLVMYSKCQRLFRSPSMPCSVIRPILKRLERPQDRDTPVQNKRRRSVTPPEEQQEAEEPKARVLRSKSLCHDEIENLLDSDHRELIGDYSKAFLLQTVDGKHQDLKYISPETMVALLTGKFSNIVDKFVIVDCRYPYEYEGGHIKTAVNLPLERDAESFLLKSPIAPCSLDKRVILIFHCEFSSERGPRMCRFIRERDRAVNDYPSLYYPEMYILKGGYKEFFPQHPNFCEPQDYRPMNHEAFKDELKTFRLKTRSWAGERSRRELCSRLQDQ

[3] = target: T3, Tyrosine-protein phosphatase non-receptor type 11 (Homo sapiens, UniProt Q06124); experiment: Inhibition of SHP2 (unknown origin)
T3 sequence (Q06124 whole entry): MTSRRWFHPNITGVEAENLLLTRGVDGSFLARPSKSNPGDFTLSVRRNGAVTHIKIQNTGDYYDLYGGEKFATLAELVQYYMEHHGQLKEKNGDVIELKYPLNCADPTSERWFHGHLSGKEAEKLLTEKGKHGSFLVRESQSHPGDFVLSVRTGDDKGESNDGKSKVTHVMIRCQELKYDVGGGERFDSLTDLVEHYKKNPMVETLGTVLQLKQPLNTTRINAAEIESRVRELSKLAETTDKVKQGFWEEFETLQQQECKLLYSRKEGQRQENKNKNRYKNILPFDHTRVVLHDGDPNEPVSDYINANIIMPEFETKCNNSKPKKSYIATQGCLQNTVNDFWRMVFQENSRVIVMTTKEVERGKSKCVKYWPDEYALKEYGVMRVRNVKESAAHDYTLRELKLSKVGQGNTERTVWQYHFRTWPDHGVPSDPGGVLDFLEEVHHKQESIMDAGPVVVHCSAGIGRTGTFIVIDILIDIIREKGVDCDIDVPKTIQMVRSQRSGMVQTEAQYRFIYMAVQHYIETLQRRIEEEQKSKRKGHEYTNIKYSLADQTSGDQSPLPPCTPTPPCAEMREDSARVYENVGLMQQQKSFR

[4] = target: T4, M-phase inducer phosphatase 2 (Homo sapiens, UniProt P30305); experiment: Inhibition of Cdc25B (unknown origin)
T4 sequence (P30305 whole entry): T2 sequence (whole entry)

[5] = target: Tyrosine-protein phosphatase non-receptor type 6 (Homo sapiens, UniProt P29350); experiment: Inhibition of SHP1 (unknown origin)
[6] = target: T5, Tyrosine-protein phosphatase non-receptor type 2 (Homo sapiens, UniProt P17706); experiment: Inhibition of TCPTP (unknown origin)
T5 sequence (P17706 whole entry): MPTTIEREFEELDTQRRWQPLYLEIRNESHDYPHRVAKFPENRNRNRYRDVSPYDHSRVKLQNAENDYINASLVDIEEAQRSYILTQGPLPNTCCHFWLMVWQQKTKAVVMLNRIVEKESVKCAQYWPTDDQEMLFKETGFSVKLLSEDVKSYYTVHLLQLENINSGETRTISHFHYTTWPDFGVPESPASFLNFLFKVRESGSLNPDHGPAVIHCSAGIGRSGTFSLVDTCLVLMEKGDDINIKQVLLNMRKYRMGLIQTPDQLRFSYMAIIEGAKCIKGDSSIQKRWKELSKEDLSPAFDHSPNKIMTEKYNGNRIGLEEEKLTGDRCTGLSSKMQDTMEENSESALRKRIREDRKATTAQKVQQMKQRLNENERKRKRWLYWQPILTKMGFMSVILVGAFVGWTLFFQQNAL

[7] = target: Receptor-type tyrosine-protein phosphatase F (Homo sapiens, UniProt P10586); experiment: Inhibition of LAR (unknown origin)
[8] = target: T6, Tyrosine-protein phosphatase non-receptor type 1 (Homo sapiens) (UniProt P18031); experiment: Inhibition of PTP1B (unknown origin) at 5 ug/ml
T6 sequence (whole entry): T1 sequence (P18031 whole entry)

[9] = target: T6, Tyrosine-protein phosphatase non-receptor type 1 (Homo sapiens); experiment: Mixed inhibition of PTP1B (unknown origin) by Lineweaver-Burk plot

Chain of Receptor-type tyrosine-protein phosphatase F (P10586 whole entry): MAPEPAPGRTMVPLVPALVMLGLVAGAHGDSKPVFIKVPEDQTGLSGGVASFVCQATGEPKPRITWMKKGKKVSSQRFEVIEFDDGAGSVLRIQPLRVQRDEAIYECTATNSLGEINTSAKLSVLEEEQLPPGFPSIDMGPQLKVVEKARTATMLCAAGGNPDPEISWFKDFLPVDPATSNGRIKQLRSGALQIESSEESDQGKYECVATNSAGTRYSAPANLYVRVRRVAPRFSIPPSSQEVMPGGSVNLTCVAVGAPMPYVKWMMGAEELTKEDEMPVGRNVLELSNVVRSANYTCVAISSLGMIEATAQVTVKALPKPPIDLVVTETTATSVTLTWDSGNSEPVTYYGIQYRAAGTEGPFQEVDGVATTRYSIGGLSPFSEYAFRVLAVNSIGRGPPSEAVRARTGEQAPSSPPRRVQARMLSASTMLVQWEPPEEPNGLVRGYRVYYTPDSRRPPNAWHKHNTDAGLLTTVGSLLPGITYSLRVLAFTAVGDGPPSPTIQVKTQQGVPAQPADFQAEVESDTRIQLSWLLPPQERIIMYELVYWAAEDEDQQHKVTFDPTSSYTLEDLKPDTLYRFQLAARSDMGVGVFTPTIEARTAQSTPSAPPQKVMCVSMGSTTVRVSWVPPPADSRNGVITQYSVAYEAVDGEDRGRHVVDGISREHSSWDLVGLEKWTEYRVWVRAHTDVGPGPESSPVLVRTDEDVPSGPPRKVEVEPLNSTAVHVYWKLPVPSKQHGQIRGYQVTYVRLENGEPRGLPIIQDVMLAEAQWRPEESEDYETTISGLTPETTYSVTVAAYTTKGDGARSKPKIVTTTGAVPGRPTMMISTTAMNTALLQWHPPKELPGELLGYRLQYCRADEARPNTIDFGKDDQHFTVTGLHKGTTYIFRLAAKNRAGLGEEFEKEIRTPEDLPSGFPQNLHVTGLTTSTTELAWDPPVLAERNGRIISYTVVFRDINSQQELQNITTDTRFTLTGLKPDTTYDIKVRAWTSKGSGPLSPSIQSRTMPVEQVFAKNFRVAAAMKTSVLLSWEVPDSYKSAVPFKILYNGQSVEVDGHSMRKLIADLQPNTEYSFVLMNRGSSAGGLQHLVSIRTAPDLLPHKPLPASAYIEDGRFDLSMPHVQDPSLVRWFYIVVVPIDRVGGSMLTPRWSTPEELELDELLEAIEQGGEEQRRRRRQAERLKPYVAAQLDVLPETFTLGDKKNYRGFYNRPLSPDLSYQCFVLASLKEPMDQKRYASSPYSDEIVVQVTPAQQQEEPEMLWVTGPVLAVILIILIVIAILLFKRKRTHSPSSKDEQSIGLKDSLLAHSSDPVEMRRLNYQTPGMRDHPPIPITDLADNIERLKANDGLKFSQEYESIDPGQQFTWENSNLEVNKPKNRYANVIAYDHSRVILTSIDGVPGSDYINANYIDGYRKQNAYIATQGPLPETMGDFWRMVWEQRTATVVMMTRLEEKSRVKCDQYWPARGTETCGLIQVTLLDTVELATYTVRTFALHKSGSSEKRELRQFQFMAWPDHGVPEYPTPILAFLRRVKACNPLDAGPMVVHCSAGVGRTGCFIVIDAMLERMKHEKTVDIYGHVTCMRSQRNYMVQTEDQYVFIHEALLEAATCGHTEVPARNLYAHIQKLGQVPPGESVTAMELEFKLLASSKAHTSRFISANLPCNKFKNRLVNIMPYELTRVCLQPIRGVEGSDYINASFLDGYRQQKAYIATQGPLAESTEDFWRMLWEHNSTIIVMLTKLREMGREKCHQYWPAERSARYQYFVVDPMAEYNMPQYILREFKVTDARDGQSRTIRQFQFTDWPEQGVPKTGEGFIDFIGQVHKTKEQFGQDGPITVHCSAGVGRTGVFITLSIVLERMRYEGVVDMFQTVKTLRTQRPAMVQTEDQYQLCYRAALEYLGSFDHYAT
Chain of Tyrosine-protein phosphatase non-receptor type 6 (P29350 whole entry): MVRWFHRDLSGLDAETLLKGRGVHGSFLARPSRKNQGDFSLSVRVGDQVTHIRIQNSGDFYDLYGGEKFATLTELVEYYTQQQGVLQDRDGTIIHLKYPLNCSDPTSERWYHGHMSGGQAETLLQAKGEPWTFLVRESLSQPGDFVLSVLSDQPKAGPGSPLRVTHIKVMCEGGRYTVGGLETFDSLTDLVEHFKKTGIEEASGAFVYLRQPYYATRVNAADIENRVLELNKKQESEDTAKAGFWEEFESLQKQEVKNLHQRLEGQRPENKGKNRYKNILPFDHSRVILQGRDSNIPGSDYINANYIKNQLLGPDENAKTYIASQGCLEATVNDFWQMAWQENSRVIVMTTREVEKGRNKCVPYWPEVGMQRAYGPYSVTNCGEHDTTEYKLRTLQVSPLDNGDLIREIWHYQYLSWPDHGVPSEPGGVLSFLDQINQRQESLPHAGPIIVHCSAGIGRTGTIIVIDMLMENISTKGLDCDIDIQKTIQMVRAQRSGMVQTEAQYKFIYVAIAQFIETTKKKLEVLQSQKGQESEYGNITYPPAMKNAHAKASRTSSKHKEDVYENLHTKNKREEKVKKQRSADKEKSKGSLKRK

Row | Compound | IC50 [1] [µM] | inhibition [2] [%] | IC50 [3] | IC50 [4] [µM] | IC50 [5] | IC50 [6] | IC50 [7] | inhibition [8] [%] | inhibition [9]
1 | COc1ccc(C(=O)Nc2nnc(-c3ccc(Oc4ccc([N+](=O)[O-])cc4)cc3)s2)cc1 | 9.08 | 88.8 | Not Active | 2.77 | Not Active | Not Active | Not Active | 72.6 | –
2 | O=C(Cc1cccc2ccccc12)Nc1nnc(-c2ccc(Oc3ccc([N+](=O)[O-])cc3)cc2)s1 | 7.52 | 90.4 | Not Active | 5.16 | Not Active | Not Active | Not Active | 74.1 | –
3 | O=C(Cc1ccccc1)Nc1nnc(-c2ccc(Oc3ccc([N+](=O)[O-])cc3[N+](=O)[O-])cc2)s1 | 4.11 | 91.7 | Not Active | 3.29 | Not Active | Not Active | Not Active | 90.9 | –
4 | Cc1ccc(C(=O)Nc2nnc(-c3ccc(Oc4ccc([N+](=O)[O-])cc4[N+](=O)[O-])cc3)s2)cc1 | 10.8 | 94.5 | Not Active | 2.47 | Not Active | Not Active | Not Active | 85.3 | –
5 | COc1cc(C(=O)Nc2nnc(-c3ccc(Oc4ccc([N+](=O)[O-])cc4[N+](=O)[O-])cc3)s2)cc(OC)c1OC | 5.24 | 84.5 | Not Active | 3.99 | Not Active | Not Active | Not Active | 84.2 | –
6 | COc1cccc(C(=O)Nc2nnc(-c3ccc(Oc4ccc([N+](=O)[O-])cc4[N+](=O)[O-])cc3)s2)c1 | 10.8 | 92.6 | Not Active | 8.33 | Not Active | Not Active | Not Active | 86.3 | –
7 | O=C(Cc1cccc2ccccc12)Nc1nnc(-c2ccc(Oc3ccc([N+](=O)[O-])cc3[N+](=O)[O-])cc2)s1 | 6.07 | 88.9 | Not Active | 5.69 | Not Active | Not Active | Not Active | 82.1 | –
8 | Cc1ccccc1C(=O)Nc1nnc(-c2ccc(Oc3ccc([N+](=O)[O-])cc3)cc2)s1 | 8.05 | 94 | Not Active | 9.41 | Not Active | Not Active | Not Active | 60.4 | –
9 | O=C(Nc1nnc(-c2ccc(Oc3ccc([N+](=O)[O-])cc3[N+](=O)[O-])cc2)s1)c1ccc([N+](=O)[O-])cc1 | 15.8 | 97.7 | Not Active | 9.4 | Not Active | Not Active | Not Active | 81.8 | –
10 | O=C(Nc1nnc(-c2ccc(Oc3ccc([N+](=O)[O-])cc3)cc2)s1)c1ccccc1 | 9.89 | 86.3 | Not Active | 7.79 | Not Active | Not Active | Not Active | 79.6 | –
11 | O=C(Nc1nnc(-c2ccc(Oc3ccc([N+](=O)[O-])cc3[N+](=O)[O-])cc2)s1)c1cccc([N+](=O)[O-])c1 | 2.67 | 99.2 | Not Active | 2.52 | Not Active | Not Active | Not Active | 85.6 | Active

Source: ChEMBL document CHEMBL3352415, “Synthesis and biological evaluation of novel thiadiazole amides as potent Cdc25B and PTP1B inhibitors” (Bioorg Med Chem Lett, 2014)
